The values below are quoted from earlier work in US4279898A, “In vivo inhibitors of cholesterol biosynthesis” (Research Foundation of the City University of New York, priority 1980, dated 1981).

This data set concerns 5-phosphomevalonate kinase. Particulars: publications by the inventors.

With `CC(O)(CCCP(=O)(O)O)CC(=O)O` (stereo not shown) [5-carboxy-4-hydroxy-4-methylpentyl-1-phosphonic acid], the “inhibition of 5-phosphomevalonate kinase” value was “inhibition”.
